Experiments:
[1] = target: T1, Human Neuropeptide Y2 Receptor (Homo sapiens, UniProt P49146); test: Radioligand binding competition assay (RLB); conditions: Table 3; human 125I-PYY (1-36) 0.02 nM, Y2 receptor membranes; read-out: Ki
T1 construct: purchased CHEMICON HTS066M
T1 sequence (P49146 1-381): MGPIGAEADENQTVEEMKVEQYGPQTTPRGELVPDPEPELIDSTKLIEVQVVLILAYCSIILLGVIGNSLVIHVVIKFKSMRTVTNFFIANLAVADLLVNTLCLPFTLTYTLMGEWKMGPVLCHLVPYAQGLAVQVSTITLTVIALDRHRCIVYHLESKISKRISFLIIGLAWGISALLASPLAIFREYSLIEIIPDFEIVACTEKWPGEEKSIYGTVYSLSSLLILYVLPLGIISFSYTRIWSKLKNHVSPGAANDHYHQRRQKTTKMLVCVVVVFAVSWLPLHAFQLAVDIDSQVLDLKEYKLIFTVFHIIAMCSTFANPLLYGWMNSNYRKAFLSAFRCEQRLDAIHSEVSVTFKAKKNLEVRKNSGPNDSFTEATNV
Procedure, shortened: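 Membranes (0.5 μg/well) and test peptides, serially diluted from 1 mM DMSO stocks, were incubated 2 hours at room temperature in HEPES buffer pH 7.4 with Mg, Ca and ovalbumin.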

[2] = tested on: normal NMRI mice; test: Effect on acute food intake in normal NMRI mice; format: in vivo; conditions: male NMRI mice, 10 nmol/kg subcutaneously once
Procedure, shortened: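 Male NMRI mice acclimatized in an HM-2 real-time food intake monitoring system, fasted 6 h before dark phase. Single subcutaneous dose of 10 nmol/kg peptide given 1 h before dark; n=7-8. Food intake expressed as % of vehicle group (50 mM phosphate pH7, 5% Mannitol).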

Row | SMILES | Ki [1] [nM] | Acute Food Intake 24 h [% vehicle] [2] [% vehicle]
1 | CC(C)CC(=O)N[C@@H](C)C(=O)N1CCC[C@H]1C(=O)N[C@@H](CCC(=O)O)C(=O)N[C@@H](CCCCNC(=O)COCCOCCNC(=O)COCCOCCNC(=O)CC[C@H](NC(=O)CCCCCCCCCCCCCCCCC(=O)O)C(=O)O)C(=O)N1CCC[C@H]1C(=O)N[C@@H](CCC(=O)O)C(=O)N[C@@H](CCC(=O)O)C(=O)N[C@@H](CC(=O)O)C(=O)N[C@@H](C)C(=O)N[C@@H](CO)C(=O)N[C@@H](CCC(=O)O)C(=O)N[C@@H](CCC(=O)O)C(=O)N[C@@H](CCC(=O)O)C(=O)N[C@@H](CC(C)C)C(=O)N[C@@H](CCC(N)=O)C(=O)N[C@@H](CCCNC(=N)N)C(=O)N[C@@H](Cc1ccc(O)cc1)C(=O)N[C@@H](Cc1ccc(O)cc1)C(=O)N[C@H](C(=O)N[C@@H](CO)C(=O)N[C@@H](CC(C)C)C(=O)N[C@@H](CCCNC(=N)N)C(=O)N[C@@H](Cc1c[nH]cn1)C(=O)N[C@@H](Cc1ccc(O)cc1)C(=O)N[C@@H](Cc1ccc(O)cc1)C(=O)N[C@@H](CC(N)=O)C(=O)N[C@@H](Cc1c[nH]c2ccccc12)C(=O)N[C@@H](CC(C)C)C(=O)N[C@H](C(=O)N[C@@H](CCCNC(=N)N)C(=O)N[C@@H](CCC(N)=O)C(=O)N[C@@H](CCCNC(=N)N)C(=O)N[C@@H](Cc1ccc(O)cc1)C(N)=O)[C@@H](C)O)C(C)C [Compound 176, N{alpha-4}-(3-methylbutanoyl)-N{epsilon-7}-[2-(2-{2-[2-(2-{2-[(4S)-4-carboxy-4-(17-carboxyheptadecanamido)butanamido]ethoxy}ethoxy)acetamido]ethoxy}ethoxy)acetamido]-[4A,7K,9E,14E,18Q,22V,28Y,30W,31L]hPYY (4-36)] | 3.05 | 52
2 | CC(C)CC(=O)N[C@@H](C)C(=O)N1CCC[C@H]1C(=O)N[C@@H](CCC(=O)O)C(=O)N[C@@H](CCCCNC(=O)COCCOCCNC(=O)COCCOCCNC(=O)CC[C@H](NC(=O)CCCCCCCCCCCCCCCCC(=O)O)C(=O)O)C(=O)N1CCC[C@H]1C(=O)N[C@@H](CCC(=O)O)C(=O)N[C@@H](CCC(=O)O)C(=O)N[C@@H](CC(=O)O)C(=O)N[C@@H](C)C(=O)N[C@@H](CO)C(=O)N1CCC[C@H]1C(=O)N[C@@H](CCC(=O)O)C(=O)N[C@@H](CCC(=O)O)C(=O)N[C@H](C(=O)N[C@@H](CCC(N)=O)C(=O)N[C@@H](CCC(N)=O)C(=O)N[C@@H](Cc1ccc(O)cc1)C(=O)N[C@@H](Cc1ccc(O)cc1)C(=O)N[C@H](C(=O)N[C@@H](CO)C(=O)N[C@@H](CC(C)C)C(=O)N[C@@H](CCCNC(=N)N)C(=O)N[C@@H](Cc1c[nH]cn1)C(=O)N[C@@H](Cc1ccc(O)cc1)C(=O)N[C@@H](Cc1ccc(O)cc1)C(=O)N[C@@H](CC(N)=O)C(=O)N[C@@H](Cc1c[nH]c2ccccc12)C(=O)N[C@@H](CC(C)C)C(=O)N[C@H](C(=O)N[C@@H](CCCNC(=N)N)C(=O)N[C@@H](CCC(N)=O)C(=O)N[C@@H](CCCNC(=N)N)C(=O)N[C@@H](Cc1ccc(O)cc1)C(N)=O)[C@@H](C)O)C(C)C)[C@@H](C)O [Compound 180, N{alpha-4}-(3-methylbutanoyl)-N{epsilon-7}-[2-(2-{2-[2-(2-{2-[(4S)-4-carboxy-4-(17-carboxyheptadecanamido)butanamido]ethoxy}ethoxy)acetamido]ethoxy}ethoxy)acetamido]-[4A,7K,9E,17T,18Q,19Q,22V,28Y,30W,31L]hPYY (4-36)] | 3.85 | 74
3 | CC[C@H](C)[C@H](NC(=O)[C@H](CCC(=O)O)NC(=O)[C@H](CCC(=O)O)NC(=O)[C@H](CCC(=O)O)NC(=O)[C@H](CO)NC(=O)[C@H](C)NC(=O)[C@H](CC(=O)O)NC(=O)[C@H](CCC(=O)O)NC(=O)[C@H](CCC(=O)O)NC(=O)[C@@H]1CCCN1C(=O)[C@H](CCCCNC(=O)COCCOCCNC(=O)COCCOCCNC(=O)CC[C@H](NC(=O)CCCCCCCCCCCCCCCCC(=O)O)C(=O)O)NC(=O)[C@H](CCC(=O)O)NC(=O)[C@@H]1CCCN1C(=O)[C@H](C)NC(=O)CC(C)C)C(=O)N[C@@H](CCC(N)=O)C(=O)N[C@@H](CCCNC(=N)N)C(=O)N[C@@H](Cc1ccc(O)cc1)C(=O)N[C@@H](Cc1ccc(O)cc1)C(=O)N[C@H](C(=O)N[C@@H](CO)C(=O)N[C@@H](CC(C)C)C(=O)N[C@@H](CCCNC(=N)N)C(=O)N[C@@H](Cc1c[nH]cn1)C(=O)N[C@@H](Cc1ccc(O)cc1)C(=O)N[C@@H](Cc1ccc(O)cc1)C(=O)N[C@@H](CC(N)=O)C(=O)N[C@@H](Cc1c[nH]c2ccccc12)C(=O)N[C@@H](CC(C)C)C(=O)N[C@H](C(=O)N[C@@H](CCCNC(=N)N)C(=O)N[C@@H](CCC(N)=O)C(=O)N[C@@H](CCCNC(=N)N)C(=O)N[C@@H](Cc1ccc(O)cc1)C(N)=O)[C@@H](C)O)C(C)C [Compound 193, N{alpha-4}-(3-methylbutanoyl)-N{epsilon-7}-[2-(2-{2-[2-(2-{2-[(4S)-4-carboxy-4-(17-carboxyheptadecanamido)butanamido]ethoxy}ethoxy)acetamido]ethoxy}ethoxy)acetamido]-[4A,7K,9E,14E,17I,18Q,22V,28Y,30W,31L]hPYY (4-36)] | 3.81 | 57

Continued, in another order:

Row | Ki [1] [nM] | SMILES | Acute Food Intake 24 h [% vehicle] [2] [% vehicle]
4 | 3.89 | CC(C)CC(=O)N[C@@H](C)C(=O)N1CCC[C@H]1C(=O)N[C@@H](C)C(=O)N[C@@H](CCCCNC(=O)COCCOCCNC(=O)COCCOCCNC(=O)CC[C@H](NC(=O)CCCCCCCCCCCCCCCCC(=O)O)C(=O)O)C(=O)N1CCC[C@H]1C(=O)N[C@@H](CCC(=O)O)C(=O)N[C@@H](CCC(=O)O)C(=O)N[C@@H](CC(=O)O)C(=O)N[C@@H](C)C(=O)N[C@@H](CCC(=O)O)C(=O)N1CCC[C@H]1C(=O)N[C@@H](CCC(=O)O)C(=O)N[C@@H](CCC(=O)O)C(=O)N[C@@H](CC(C)C)C(=O)N[C@@H](CCC(N)=O)C(=O)N[C@@H](CCCNC(=N)N)C(=O)N[C@@H](Cc1ccc(O)cc1)C(=O)N[C@@H](Cc1ccc(O)cc1)C(=O)N[C@H](C(=O)N[C@@H](CO)C(=O)N[C@@H](CC(C)C)C(=O)N[C@@H](CCCNC(=N)N)C(=O)N[C@@H](Cc1c[nH]cn1)C(=O)N[C@@H](Cc1ccc(O)cc1)C(=O)N[C@@H](Cc1ccc(O)cc1)C(=O)N[C@@H](CC(N)=O)C(=O)N[C@@H](Cc1c[nH]c2ccccc12)C(=O)N[C@@H](CC(C)C)C(=O)N[C@H](C(=O)N[C@@H](CCCNC(=N)N)C(=O)N[C@@H](CCC(N)=O)C(=O)N[C@@H](CCCNC(=N)N)C(=O)N[C@@H](Cc1ccc(O)cc1)C(N)=O)[C@@H](C)O)C(C)C [Compound 174, N{alpha-4}-(3-methylbutanoyl)-N{epsilon-7}-[2-(2-{2-[2-(2-{2-[(4S)-4-carboxy-4-(17-carboxyheptadecanamido)butanamido]ethoxy}ethoxy)acetamido]ethoxy}ethoxy)acetamido]-[4A,6A,7K,9E,13E,18Q,22V,28Y,30W,31L]hPYY (4-36)] | 41
5 | 3.58 | CC(C)CC(=O)N[C@@H](C)C(=O)N1CCC[C@H]1C(=O)N[C@@H](CCC(=O)O)C(=O)N[C@@H](CCCCNC(=O)COCCOCCNC(=O)COCCOCCNC(=O)CC[C@H](NC(=O)CCCCCCCCCCCCCCCCC(=O)O)C(=O)O)C(=O)N1CCC[C@H]1C(=O)N[C@@H](CCC(=O)O)C(=O)N[C@@H](CCC(=O)O)C(=O)N[C@@H](CCC(=O)O)C(=O)N[C@@H](C)C(=O)N[C@@H](CO)C(=O)N1CCC[C@H]1C(=O)N[C@@H](CCC(=O)O)C(=O)N[C@@H](CCC(=O)O)C(=O)N[C@@H](CC(C)C)C(=O)N[C@@H](CCC(N)=O)C(=O)N[C@@H](CCCNC(=N)N)C(=O)N[C@@H](Cc1ccc(O)cc1)C(=O)N[C@@H](Cc1ccc(O)cc1)C(=O)N[C@H](C(=O)N[C@@H](CCC(=O)O)C(=O)N[C@@H](CC(C)C)C(=O)N[C@@H](CCCNC(=N)N)C(=O)N[C@@H](Cc1c[nH]cn1)C(=O)N[C@@H](Cc1ccc(O)cc1)C(=O)N[C@@H](Cc1ccc(O)cc1)C(=O)N[C@@H](CC(N)=O)C(=O)N[C@@H](Cc1c[nH]c2ccccc12)C(=O)N[C@@H](CC(C)C)C(=O)N[C@H](C(=O)N[C@@H](CCCNC(=N)N)C(=O)N[C@@H](CCC(N)=O)C(=O)N[C@@H](CCCNC(=N)N)C(=O)N[C@@H](Cc1ccc(O)cc1)C(N)=O)[C@@H](C)O)C(C)C [Compound 185, N{alpha-4}-(3-methylbutanoyl)-N{epsilon-7}-[2-(2-{2-[2-(2-{2-[(4S)-4-carboxy-4-(17-carboxyheptadecanamido)butanamido]ethoxy}ethoxy)acetamido]ethoxy}ethoxy)acetamido]-[4A,7K,9E,11E,18Q,22V,23E,28Y,30W,31L]hPYY (4-36)] | 39
